system: SMN protein in SMA patient fibroblast cells; assay: SMN protein assay in cultured cells (SMN HTRF); format: cell-based, human; conditions: concentration producing 1.5 times SMN protein vs vehicle; SMA patient fibroblasts, 48 hours, 7-point curve
From the text: The term “EC1.5× concentration for SMN protein expression” (or “EC1.5× SMN protein”) is defined as that concentration of test compound that is effective in producing 1.5 times the amount of SMN protein in an SMA patient fibroblast cell compared to the amount produced from the vehicle control.
The SMN HTRF (homogeneous time resolved fluorescence) assay is used to quantify the level of SMN protein in SMA patient fibroblast cells treated with test compounds. Materials used and respective sources are listed below in Table 3.
Cells are thawed and cultured in DMEM-10% FBS for 72 hours. Cells are trypsinized, counted and re-suspended to a concentration of 25,000 cells/mL in DMEM-10% FBS. The cell suspensions are plated at 5,000 cells per well in a 96 well microtiter plate and incubated for 3 to […]. Test compounds are serially diluted 3.16-fold in 100% DMSO to generate a 7-point concentration curve. 1 μL of test compound solution is transferred to cell-containing wells and cells are incubated for 48 hours in a cell culture incubator (37° C., 5% CO2, 100% relative humidity). Triplicate samples are set up for each test compound concentration. After 48 hours, the supernatant is removed from the wells and 25 μL of the RIPA lysis buffer, containing protease inhibitors, is added to the wells and incubated with shaking at room temperature for 1 hour. 25 μL of the diluent is added and then 35 μL of the resulting lysate is transferred to a 384-well plate, where each well contains 5 μL of the antibody solution (1:100 dilution of anti-SMN d2 and anti-SMN kryptate in SMN reconstitution buffer). The plate is centrifuged for 1 minute to bring the solution to the bottom of the wells, then incubated overnight at room temperature. Fluorescence for each well of the plate at 665 nm and 620 nm is measured on an EnVision multilabel plate reader (Perkin-Elmer).
The normalized fluorescence signal is calculated for each sample, Blank and vehicle control well by dividing the signal at 665 nm by the signal at 620 nm. Normalizing the signal accounts for possible fluorescence quenching due to the matrix effect of the lysate. The ΔF value (a measurement of SMN protein abundance as a percent value) for each sample well is calculated by subtracting the normalized average fluorescence for the Blank control wells from the normalized fluorescence for each sample well, then dividing this difference by the normalized average fluorescence for the Blank control wells and multiplying the resulting value by 100. The ΔF value for each sample well represents the SMN protein abundance from test compound-treated samples. The ΔF value for each sample well is divided by the ΔF value for the vehicle control wells to calculate the fold increase in SMN protein abundance relative to the vehicle control. Table 4 provides EC1.5× concentrations for SMN protein expression that was obtained from the 7-point concentration data generated according to the above procedure for particular compounds of the present invention.
Table 5 provides the maximum fold increase of SMN protein that was obtained from the 7-point concentration data generated according to the above procedure for particular compounds of the present invention

`Cc1cn2nc(-c3cc(=O)n4cc(N5C[C@H](C)N[C@@H](C)C5)ccc4n3)cc(C)c2n1` [Example 29, 2-(2,8-dimethylimidazo[1,2-b]pyridazin-6-yl)-7-[(3S,5S)-3,5-dimethylpiperazin-1-yl]pyrido[1,2-a]pyrimidin-4-one] and `Cc1cn2nc(-c3cc(=O)n4cc(N5CCN[C@H](C)C5)ccc4n3)cc(C)c2n1` [Example 9, 2-(2,8-dimethylimidazo[1,2-b]pyridazin-6-yl)-7-[(3R)-3-methylpiperazin-1-yl]pyrido[1,2-a]pyrimidin-4-one] are within 1.5-fold of each other in “EC1.5x SMN protein” value: 2.1 nM for the first, 2.5 nM for the second.

`Cc1cn2nc(-c3cc(=O)n4cc(N5CCNC6(CC6)C5)cc(C)c4n3)ccc2n1` [Example 37, 7-(4,7-diazaspiro[2.5]octan-7-yl)-9-methyl-2-(2-methylimidazo[1,2-b]ipyridazin-6-yl)pyrido[1,2-a]pyrimidin-4-one] and `Cc1cn2nc(-c3cc(=O)n4cc(N5CCNC6(CC6)C5)ccc4n3)cc(C)c2n1` [Example 20, 7-(4,7-diazaspiro[2.5]octan-7-yl)-2-(2,8-dimethylimidazo[1,2-b]pyridazin-6-yl)pyrido[1,2-a]pyrimidin-4-one] are within 1.5-fold of each other in “EC1.5x SMN protein” value: 45 nM for the first, 37 nM for the second.

Compared with `Cc1cn2nc(-c3cc(=O)n4cc(N5CCCNCC5)ccc4n3)ccc2n1` [Example 13, 7-(1,4-diazepan-1-yl)-2-(2-methylimidazo[1,2-b]pyridazin-6-yl)pyrido[1,2-a]pyrimidin-4-one], `Cc1cn2nc(-c3cc(=O)n4cc(N5CCN[C@@H](C)C5)ccc4n3)ccc2n1` [Example 11, 2-(2-methylimidazo[1,2-b]pyridazin-6-yl)-7-[(3S)-3-methylpiperazin-1-yl]pyrido[1,2-a]pyrimidin-4-one] is 2.3-fold higher in “EC1.5x SMN protein” value: 3 nM for the first, 7 nM for the second.

First: Cc1cn2nc(-c3cc(=O)n4cc(N5CC[C@@H](N6CCCC6)C5)ccc4n3)cc(C)c2n1 [Example 18, 2-(2,8-dimethylimidazo[1,2-b]pyridazin-6-yl)-7-[(3R)-3-pyrrolidin-1-ylpyrrolidin-1-yl]pyrido[1,2-a]pyrimidin-4-one]
Second: Cc1cn2nc(-c3cc(=O)n4cc(N5CCN[C@@H](C)C5)ccc4n3)cc(C)c2n1 [Example 8, 2-(2,8-dimethylimidazo[1,2-b]pyridazin-6-yl)-7-[(3S)-3-methylpiperazin-1-yl]pyrido[1,2-a]pyrimidin-4-one]
The “EC1.5x SMN protein” value of the first is 4.2-fold higher: 25 nM for the first, 5.9 nM for the second.

First: Cc1cn2nc(-c3cc(=O)n4cc(N5CCN6CCC[C@]6(C)C5)ccc4n3)cc(C)c2n1 [Example 6, 7-[(8aR)-8a-methyl-1,3,4,6,7,8-hexahydropyrrolo[1,2-a]pyrazin-2-yl]-2-(2,8-dimethylimidazo[1,2-b]pyridazin-6-yl)pyrido[1,2-a]pyrimidin-4-one]
Second: Cc1cn2nc(-c3cc(=O)n4cc(N5CCN6CCC[C@@]6(C)C5)ccc4n3)cc(C)c2n1 [Example 5, 7-[(8aS)-8a-methyl-1,3,4,6,7,8-hexahydropyrrolo[1,2-a]pyrazin-2-yl]-2-(2,8-dimethylimidazo[1,2-b]pyridazin-6-yl)pyrido[1,2-a]pyrimidin-4-one]
The “EC1.5x SMN protein” value of the first is 2.7-fold higher: 11 nM for the first, 4.1 nM for the second.

`Cc1cn2nc(-c3cc(=O)n4cc(N5CCN[C@@H](C)C5)cc(C)c4n3)cc(C)c2n1` [Example 24, 2-(2,8-dimethylimidazo[1,2-b]pyridazin-6-yl)-9-methyl-7-[(3S)-3-methylpiperazin-1-yl]pyrido[1,2-a]pyrimidin-4-one] and `Cc1cn2nc(-c3cc(=O)n4cc(N5CCN[C@H](C)C5)cc(C)c4n3)ccc2n1` [Example 34, 9-methyl-2-(2-methylimidazo[1,2-b]pyridazin-6-yl)-7-[(3R)-3-methylpiperazin-1-yl]pyrido[1,2-a]pyrimidin-4-one] are within 1.5-fold of each other in “EC1.5x SMN protein” value: 4.7 nM for the first, 4.4 nM for the second.

For `Cc1cn2nc(-c3cc(=O)n4cc(N5C[C@H](C)N[C@@H](C)C5)ccc4n3)ccc2n1` [Example 32, 7-[(3S,5S)-3,5-dimethylpiperazin-1-yl]-2-(2-methylimidazo[1,2-b]pyridazin-6-yl)pyrido[1,2-a]pyrimidin-4-one], the “EC1.5x SMN protein” value was 4 nM.

— patent US20180289713A1, “COMPOUNDS FOR TREATING AMYOTROPHIC LATERAL SCLEROSIS” (Hoffmann-La Roche Inc., priority 2015, published 2018)
